According to ChEMBL document CHEMBL1201862, “PubChem BioAssay data set” (2004):
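Protocol summary: plate cells (96-well), add compound at 5 concentrations, incubate 48 h, interpolate endpoints linearly. GI50: concentration for 50% inhibition of growth.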 The source made the active and inactive calls. Rule as the data show it: active = GI50 up to about 1.1 µM and inactive = higher.

Assays:
Test in all cases: growth of human tumour cells (NCI), 48 h
786-0 = system: 786-0
BT-549 = system: BT-549
HCT-116 = system: HCT-116
HCT-15 = system: HCT-15
Hs-578T = system: Hs-578T
IGROV-1 = system: IGROV-1
Malme-3M = system: Malme-3M
NCI-H226 = system: NCI-H226
NCI-H460 = system: NCI-H460
OVCAR-8 = system: OVCAR-8
PC-3 = system: PC-3
RXF 393 = system: RXF 393
SK-MEL-2 = system: SK-MEL-2
SW-620 = system: SW-620
T47D = system: T47D
TK-10 = system: TK-10
CAKI-1 = system: CAKI-1
MDA-MB-435 = system: MDA-MB-435
SF-268 = system: SF-268
SF-539 = system: SF-539

Row | SMILES | GI50 (786-0) | GI50 (BT-549) | GI50 (HCT-116) | GI50 (HCT-15) | GI50 (Hs-578T) | GI50 (IGROV-1) | GI50 (Malme-3M) | GI50 (NCI-H226) | GI50 (NCI-H460) | GI50 (OVCAR-8) | GI50 (PC-3) | GI50 (RXF 393) | GI50 (SK-MEL-2) | GI50 (SW-620) | GI50 (T47D) | GI50 (TK-10) | GI50 (CAKI-1) | GI50 (MDA-MB-435) | GI50 (SF-268) | GI50 (SF-539)
1 | O=C(CC(=O)n1nc(-c2ccccc2)c(/N=N/c2ccccc2C(=O)O)c1-c1ccccc1)Nc1ccc(Cl)cc1 | 36.1 µM (inactive) | 24.7 µM (inactive) | 17.9 µM (inactive) | 26.9 µM | 35.6 µM (inactive) | 1.5 µM (inactive) | 75 µM (inactive) | 30.6 µM (inactive) | 19.2 µM (inactive) | 36.8 µM (inactive) | 27.5 µM (inactive) | 7.66 µM (inactive) | 29.5 µM (inactive) | 63.8 µM (inactive) | 9.77 µM (inactive) | > 100 µM (inactive) |  |  |  | 
2 | C=C1C(=O)O[C@@H]2C[C@@H](C)[C@@H]3C=CC(=O)[C@@]3(C)[C@@H](O)[C@H]12 [HELENALIN] | 1.25 µM (inactive) | 1.04 µM (active) | 0.51 µM (active) | 2.33 µM |  | 2.2 µM (inactive) | 1.69 µM (inactive) | 1.63 µM (inactive) | 1.73 µM (inactive) | 1.48 µM (inactive) | 1.92 µM (inactive) | 0.466 µM (active) | 1.86 µM (inactive) | 0.719 µM (active) | 2.95 µM (inactive) | 4.05 µM (inactive) | 0.377 µM (active) | 1.58 µM (inactive) | 3.5 µM (inactive) | 1.99 µM (inactive)
3 | COc1ccc(NC(=O)/C(=N\NC(=O)C[n+]2ccccc2)c2c(O)c3ccc(O)cc3oc2=O)c([N+](=O)[O-])c1 | > 100 µM (inactive) | > 100 µM (inactive) | > 100 µM (inactive) | > 100 µM | > 100 µM (inactive) | > 100 µM (inactive) | > 100 µM (inactive) | > 100 µM (inactive) | > 100 µM (inactive) | > 100 µM (inactive) | > 100 µM (inactive) |  | > 100 µM (inactive) | > 100 µM (inactive) | > 100 µM (inactive) | > 100 µM (inactive) | > 100 µM (inactive) | > 100 µM (inactive) | > 100 µM (inactive) | > 100 µM (inactive)
4 | O=C1Nc2ccccc2C(=O)/C1=C/NC(=S)NCc1ccccc1 | > 100 µM (inactive) | > 100 µM (inactive) | > 100 µM (inactive) |  |  | > 100 µM (inactive) |  | > 100 µM (inactive) |  | > 100 µM (inactive) | > 100 µM (inactive) |  | > 100 µM (inactive) | > 100 µM (inactive) | > 100 µM (inactive) | > 100 µM (inactive) | > 100 µM (inactive) | 98.2 µM (inactive) |  | > 100 µM (inactive)
5 | CCCCn1c(C)c(C)c2c1NN=C(C#N)S2(=O)=O | > 100 µM (inactive) | > 100 µM (inactive) | > 100 µM (inactive) | > 100 µM | > 100 µM (inactive) | > 100 µM (inactive) | > 100 µM (inactive) |  | > 100 µM (inactive) | > 100 µM (inactive) | > 100 µM (inactive) |  | > 100 µM (inactive) | > 100 µM (inactive) | > 100 µM (inactive) | > 100 µM (inactive) |  | > 100 µM (inactive) | > 100 µM (inactive) | > 100 µM (inactive)
6 | COc1ccc(-n2cnc3c(NC(C)(C)C(=O)O)ncnc32)cc1 | > 100 µM (inactive) | > 100 µM (inactive) | > 100 µM (inactive) | > 100 µM | > 100 µM (inactive) | > 100 µM (inactive) |  | > 100 µM (inactive) | > 100 µM (inactive) | > 100 µM (inactive) | > 100 µM (inactive) |  | > 100 µM (inactive) | > 100 µM (inactive) | > 100 µM (inactive) | > 100 µM (inactive) | > 100 µM (inactive) | > 100 µM (inactive) | > 100 µM (inactive) | 
7 | CCOC(=O)CCC(NC(=O)C(CCC(=O)OCC)NC(=O)C(Cc1ccc([N+](=O)[O-])cc1)NC(C)=O)C(=O)NNC(=O)OC(C)(C)C (stereo unspecified) | > 100 µM (inactive) | > 100 µM (inactive) | > 100 µM (inactive) | > 100 µM | > 100 µM (inactive) | > 100 µM (inactive) | > 100 µM (inactive) | > 100 µM (inactive) | > 100 µM (inactive) | > 100 µM (inactive) | > 100 µM (inactive) | 14 µM (inactive) | > 100 µM (inactive) | > 100 µM (inactive) | 37.3 µM (inactive) | > 100 µM (inactive) |  |  |  | 
8 | c1ccc(N/N=N/c2ccc(-c3nc4ccccc4o3)cc2)nc1 | 91.8 µM (inactive) | 28.8 µM (inactive) | 39.8 µM (inactive) | 33.7 µM | 77.8 µM (inactive) | 28.6 µM (inactive) | > 100 µM (inactive) |  | 30.5 µM (inactive) | 35.8 µM (inactive) | 30.1 µM (inactive) |  | 41.1 µM (inactive) | 19.3 µM (inactive) | 25.2 µM (inactive) | 37.4 µM (inactive) |  | 31 µM (inactive) | 83.6 µM (inactive) | 55.3 µM (inactive)
9 | COC(=O)C1=COC2OC3C(C(C)O)C(=O)OC34C=CC1C24 (stereo unspecified) | 53.8 µM (inactive) | 40.4 µM (inactive) | 47.5 µM (inactive) | 31.9 µM | 34 µM (inactive) | 71.6 µM (inactive) | 36.6 µM (inactive) | > 100 µM (inactive) | 49.2 µM (inactive) | 20.9 µM (inactive) | 85.5 µM (inactive) |  | 31 µM (inactive) | 29.4 µM (inactive) | 39.4 µM (inactive) | 61.2 µM (inactive) | 55 µM (inactive) | 31.6 µM (inactive) | 49 µM (inactive) | 30.1 µM (inactive)
10 | CCOC(=O)c1cnn2c1ncc1c(=O)n(NC(N)=O)ccc12 | > 100 µM (inactive) | 94.8 µM (inactive) | > 100 µM (inactive) | > 100 µM | > 100 µM (inactive) | > 100 µM (inactive) | > 100 µM (inactive) | > 100 µM (inactive) | > 100 µM (inactive) | > 100 µM (inactive) | > 100 µM (inactive) |  | > 100 µM (inactive) | > 100 µM (inactive) | > 100 µM (inactive) | > 100 µM (inactive) | > 100 µM (inactive) | > 100 µM (inactive) | > 100 µM (inactive) | > 100 µM (inactive)
11 | CNc1ccc(Cl)cc1S(=O)(=O)c1ccccc1[N+](=O)[O-] | > 100 µM (inactive) | > 100 µM (inactive) | > 10 µM (inactive) | > 100 µM | 31.1 µM (inactive) | > 100 µM (inactive) | > 100 µM (inactive) | > 100 µM (inactive) | > 100 µM (inactive) | > 100 µM (inactive) | > 100 µM (inactive) | > 100 µM (inactive) | > 100 µM (inactive) | > 100 µM (inactive) | > 100 µM (inactive) | > 100 µM (inactive) |  |  | > 100 µM (inactive) | > 100 µM (inactive)
